The text below walks through data of patent US20230190685A1, “FORMULATION” (UNION Therapeutics A/S, priority 2020, published 2023).

Data set [1] relates to SARS-CoV-2. The settings on record: Vero E6 cells; Wang et al. 2020; read-out: EC50 against SARS-CoV-2; cited from earlier work.
For data set [2], the system named is healthy volunteers. The settings on record: human, in vivo.
Data set [3] has as its system VeroE6 cells.
For data set [4], the system named is Caco-2 cells.
Data set [5] in a line: Phase 1 trial of inhaled niclosamide, safety and PK. Conditions: human, blood, inhaled, 6 mL of 1% formulation.
The test system of data set [6] is healthy volunteers. Described as above. The settings on record: after repeated inhalation doses; raw data.
The subject of data set [7] is ATCC 29213 (A), MRSA 434844 (B) and S. aureus Newman (C). The data set can be described thus: Spot test on LB agar, all three strains. It counts as cell-based. The settings on record: for effect on bacterial load, API in DMSO: repeat spot test, only highest concentration (niclosamide 100 µg/mL, oxyclozanide 40 µg/mL). As to the method:
Following incubation, the formed colonies were counted. […] Duplicates were performed.
As both positive controls were negative further the experiment was repeated using different concentrations in a spot test using the same methodology described above.
In this experiment the negative control was the bacterial suspension only.

For data set [8] the following is noted: in vivo.
In data set [9] the test system is SARS-CoV. Conditions: cited from earlier work.
For data set [10] the following is noted: cited from earlier work.
For data set [11], the system named is asthmatic mice. The settings on record: dissolved in corn oil, I.P. injection; cited from earlier work.
The target in data set [12] is T1, TMEM16A (Homo sapiens, UniProt Q5XXA6).
T1 sequence (Q5XXA6 1-986): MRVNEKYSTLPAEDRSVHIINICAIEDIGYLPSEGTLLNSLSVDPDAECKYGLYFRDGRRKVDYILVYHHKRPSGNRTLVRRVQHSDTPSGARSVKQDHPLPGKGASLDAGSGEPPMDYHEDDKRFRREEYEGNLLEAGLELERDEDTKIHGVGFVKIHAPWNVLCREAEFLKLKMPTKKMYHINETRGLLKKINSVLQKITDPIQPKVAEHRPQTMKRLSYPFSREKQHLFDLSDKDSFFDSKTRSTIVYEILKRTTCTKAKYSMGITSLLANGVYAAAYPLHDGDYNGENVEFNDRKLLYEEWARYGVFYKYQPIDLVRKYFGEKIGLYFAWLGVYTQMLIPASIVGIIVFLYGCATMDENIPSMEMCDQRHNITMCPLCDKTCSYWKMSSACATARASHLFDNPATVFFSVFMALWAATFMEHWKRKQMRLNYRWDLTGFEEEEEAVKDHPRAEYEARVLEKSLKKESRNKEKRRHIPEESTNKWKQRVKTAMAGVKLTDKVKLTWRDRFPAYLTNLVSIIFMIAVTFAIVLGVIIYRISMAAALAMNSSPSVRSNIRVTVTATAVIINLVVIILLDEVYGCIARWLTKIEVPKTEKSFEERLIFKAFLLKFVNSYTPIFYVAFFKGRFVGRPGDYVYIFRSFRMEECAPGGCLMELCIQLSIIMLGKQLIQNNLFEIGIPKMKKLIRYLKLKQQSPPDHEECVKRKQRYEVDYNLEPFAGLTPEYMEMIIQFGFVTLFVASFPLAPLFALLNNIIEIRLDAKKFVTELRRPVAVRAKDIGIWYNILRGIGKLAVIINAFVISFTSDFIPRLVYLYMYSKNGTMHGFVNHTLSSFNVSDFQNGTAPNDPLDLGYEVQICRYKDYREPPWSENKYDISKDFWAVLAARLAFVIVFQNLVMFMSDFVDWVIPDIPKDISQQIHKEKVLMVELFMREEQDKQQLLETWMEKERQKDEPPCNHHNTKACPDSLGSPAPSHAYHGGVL
The settings on record: Cabrita et al. 2019; cited from earlier work.

Data set [13] addresses T2, TMEM16F (Homo sapiens, UniProt Q4KMQ2).
T2 sequence (Q4KMQ2 1-910): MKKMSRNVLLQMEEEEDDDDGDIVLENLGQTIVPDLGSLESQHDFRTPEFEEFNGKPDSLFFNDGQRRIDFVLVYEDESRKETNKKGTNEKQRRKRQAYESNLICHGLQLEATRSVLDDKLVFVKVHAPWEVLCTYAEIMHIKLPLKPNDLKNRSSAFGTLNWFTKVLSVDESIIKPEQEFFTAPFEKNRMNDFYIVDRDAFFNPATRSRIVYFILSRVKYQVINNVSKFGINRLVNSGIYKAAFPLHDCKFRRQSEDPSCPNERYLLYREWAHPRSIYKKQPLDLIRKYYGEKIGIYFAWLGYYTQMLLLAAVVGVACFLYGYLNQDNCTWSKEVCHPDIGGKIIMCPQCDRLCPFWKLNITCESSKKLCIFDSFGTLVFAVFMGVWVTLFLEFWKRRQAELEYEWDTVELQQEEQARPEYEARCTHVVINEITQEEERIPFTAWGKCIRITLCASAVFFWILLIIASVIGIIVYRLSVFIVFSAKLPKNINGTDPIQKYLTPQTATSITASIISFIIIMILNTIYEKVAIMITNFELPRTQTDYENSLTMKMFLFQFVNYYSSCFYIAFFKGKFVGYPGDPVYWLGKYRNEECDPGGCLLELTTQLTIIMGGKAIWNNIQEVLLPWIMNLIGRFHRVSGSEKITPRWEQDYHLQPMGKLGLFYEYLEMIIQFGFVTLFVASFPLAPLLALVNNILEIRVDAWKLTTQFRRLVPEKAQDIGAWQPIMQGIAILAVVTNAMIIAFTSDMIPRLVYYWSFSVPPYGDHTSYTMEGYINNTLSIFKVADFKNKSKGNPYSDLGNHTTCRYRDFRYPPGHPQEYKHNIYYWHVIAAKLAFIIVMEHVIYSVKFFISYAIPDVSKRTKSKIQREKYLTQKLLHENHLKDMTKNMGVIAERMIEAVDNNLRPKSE
Conditions: Cabrita et al. 2019; cited from earlier work.

The structures appear in SMILES notation. Values joined by “and” are separate entries in the source; they are usually repeats but may differ in a detail not shown here. Equal entries are not always repeated.

`CCN(CC)CCCC(C)Nc1ccnc2cc(Cl)ccc12` (stereo not shown) [chloroquine]: in [1], the EC50 (usually the concentration that produces a half-maximal response) is 1.13 µM.

With `O=C(Nc1ccc([N+](=O)[O-])cc1Cl)c1cc(Cl)ccc1O` [niclosamide ethanolamine], in data set [2], the “AUC0-8, mean” value is 509.0 ng·h/mL. Also, the “maximum plasma concentration (Cmax), mean” value in data set [2] is 238.9 ng/mL. Also, the 50% cytotoxic concentration (CC50) in data set [3] and in data set [4] was > 10 µM throughout. For the same compound, the half-life – broadly, how long it takes for the measured level to halve – in data set [5] (repeated) was 2.7 h; in data set [5] (single dose) it was 2 h. The “peak concentration in blood (range)” value in data set [6] is 29 to 506 ng/mL.

As to `O=C(Nc1ccc([N+](=O)[O-])cc1Cl)c1cc(Cl)ccc1O` [niclosamide], the “effect on bacterial load, API in DMSO” value in data set [7] is on record as “substantially decreased the bacterial load”. The “efficacy margin, mean systemic exposure of human oral dose to IC90 against SARS-CoV-2” value in [8] turned out to be 8 fold. For the same compound, in [9], the “concentration suppressing cytopathic effect (CPE) of SARS-CoV (as low as)” value is 1 µm and the “concentration that totally abolished viral antigen synthesis” value is on record as 1.56 µm. Besides, the EC50 in data set [9] (read-out: EC50 of SARS-CoV replication) was < 0.1 µM. Moreover, the “administered dose detected in the urine (minimum level of absorption)” value in [10] (after oral administration) is on record as 2-25%. Besides, the “maximal serum concentration of niclosamide” value in data set [10] (human volunteers, single oral dose of 2,000 mg) was 0.25-6.0 µg/mL and 0.76 -18.3 µM. Besides, in data set [10] (oral), the “oral bioavailability (F)” value is reported as 10%. In addition, the “effect on mucus and bronchoconstriction in asthmatic mice” value in data set [11] is “reduced mucus production and secretion, as well as bronchoconstriction”. The “inhibition of Cl- channel TMEM16A” value in data set [12] is reported as “potent inhibitor”. Also, the “inhibition of Cl- channel TMEM16F” value in data set [13] was “potent inhibitor”.

For the compound `CC(=O)Oc1ccccc1C(=O)Nc1ncc([N+](=O)[O-])s1` [nitazoxanide], in data set [1], the EC50 was 2.12 µM.

As for `O=C(Nc1cc(Cl)cc(Cl)c1O)c1c(O)c(Cl)cc(Cl)c1Cl` [oxyclozanide, Oxyclozanide], the “efficiency in reducing bacterial load of S. aureus” value in [7] (comparison of tested formulations) is given as “highest efficiency”. Besides, in data set [7], the “effect on bacterial load, API in DMSO” value is recorded as “substantially decreased the bacterial load”.
